According to BindingDB's records for doi:10.1016/j.bmcl.2009.01.068 (Methylgene, 2009):

How the values were obtained:
[1] = Inhibition of c-Met-mediated scattering in HGF-stimulated human DU145 cells
[2] = Inhibition of c-Met-mediated migration in HGF-stimulated human A549 cells by wound healing assay

- IC50 [1]: 80 nM
- IC50 [2]: 240 nM
SMILES: CCn1cnc(-c2cc3nccc(Oc4ccc(NC(=O)N5CCN(c6ccc(F)cc6)C5=O)cc4F)c3s2)c1 [N-(4-(2-(1-ethyl-1H-imidazol-4-yl)thieno[3,2-b]pyridin-7-yloxy)-3-fluorophenyl)-3-(4-fluorophenyl)-2-oxoimidazolidine-1-carboxamide]
